The values below come from patent US9346781B2, “Therapeutic compounds” (UNIVERSITY OF IOWA RESEARCH FOUNDATION, priority 2012, dated 2016).

One assay concerns HT-29 cell. To be noted: read-out: IC50, antiproliferative effect; cited from earlier work.
In the next assay the test system is NCI-60 cell assay. Description: NCI-60 cell assay. To be noted: leukemia, non-small cell lung cancer, colon cancer, CNS cancer, melanoma, ovarian cancer, renal cancer, prostate cancer, breast cancer. The class given is cell-based.
In a further assay the test system is Raji. Nature of the assay: MTT cell viability assay, Raji. The class given is cell-based. To be noted: Homo sapiens, 72 hours, read-out: IC50 (nM), antiproliferative effect. On the procedure:
(§1) FIG. 1 Illustrates results generated when HT29, A375SM, MEL624, SK-MEL-2, H1299, HCT116, Raji, HL60 and MDA-MB231 cells were treated with log-scale serial diluted concentrations of truncated superstolide A (Compound 3) from 1 to 3000 nM for 72 hours and the effect of truncated superstolide A on cell death was measured by performing a MTT assay.
(§2) Cell Viability Assay: The antiproliferative effect of compound 3 was determined by performing 3-(4,5-dimethylthiazol-2-yl)-2,5-diphenyltetrazolim (MTT) assay. Briefly, cancer cells at varying concentrations—2,000 cells/well (A375SM, MEL624 and SK-MEL-2,) and 5,000 cells/well (HT29, H1299, and HCT116, Raji, and HL-60)—were seeded onto a 96-well plate in triplicates. […] At the end of the 72 hours period, cells were treated with the MTT reagent (Sigma-Aldrich, M O) and the antiproliferative effect of compound 3 was measured as previously described (Zhou Y, Achanta G, Pelicano H, Gandhi V, Plunkett W, and Huang P (2002). Molecular Pharmacology 61:222-229). […]
(§3) The antiproliferative effect of compound 3 was evaluated in two human colon carcinoma cell lines (HT29, HCT116), three malignant melanoma cell lines (A375SM, MEL624, and SK-MEL-2), one human non-small cell lung carcinoma cell line (H1299), one lymphoma cell line (Raji), one leukemia cell line (HL-60), and one malignant breast cancer cell line (MDA-MB231) using MTT assay. […]

A further assay deals with HL60. Nature of the assay: MTT cell viability assay, HL60. The settings on record: Homo sapiens, HL-60, 72 hours, read-out: IC50 (nM), antiproliferative effect. It is filed as cell-based. As to the method: as §1, §2, §3
The subject of another assay is MEL624. Nature of the assay: MTT cell viability assay, MEL624. It is filed as cell-based. To be noted: 72 hours, read-out: IC50 (nM), antiproliferative effect. On the procedure: as §1, §2, §3
Background: Tetrazolium dyes change colour on reduction, which living cells bring about.

For the next assay, the system named is SK-MEL-2. Description: MTT cell viability assay, SK-MEL-2. The class given is cell-based. The settings on record: Homo sapiens, 72 hours, read-out: IC50 (nM), antiproliferative effect. As to the method:
as §1, §2, §3

A further assay concerns H1299. Nature of the assay: MTT cell viability assay, H1299. To be noted: Homo sapiens, NCI-H1299, 72 hours, read-out: IC50 (nM), antiproliferative effect. It is filed as cell-based. As to the method: as §1, §2, §3
The next assay deals with HCT116. Description: MTT cell viability assay, HCT116. It is filed as cell-based. The settings on record: Homo sapiens, HCT-116, 72 hours, read-out: IC50 (nM), antiproliferative effect. On the procedure:
as §1, §2, §3

For the next assay, the system named is A375SM. Nature of the assay: MTT cell viability assay, A375SM. To be noted: Homo sapiens, A375-SM, 72 hours, read-out: IC50 (nM), antiproliferative effect. The class given is cell-based. On the procedure: as §1, §2, §3
Another assay has as its system HT29. Nature of the assay: MTT cell viability assay, HT29. It is filed as cell-based, human. As to the method: as §1, §2, §3
Assay [1] deals with the other eight tested cell lines. Description: MTT cell viability assay, other eight tested cell lines (summary). It is filed as cell-based. To be noted: Homo sapiens; the other eight tested cell lines (all but HT-29); read-out: IC50 in suppressing tumor cell proliferation. On the procedure: Cell Viability Assay: The antiproliferative effect of compound 3 was determined by performing 3-(4,5-dimethylthiazol-2-yl)-2,5-diphenyltetrazolim (MTT) assay. Briefly, cancer cells at varying concentrations—2,000 cells/well (A375SM, MEL624 and SK-MEL-2,) and 5,000 cells/well (HT29, H1299, and HCT116, Raji, and HL-60)—were seeded onto a 96-well plate in triplicates. Following an overnight incubation, the cells were treated with log-scale serially increasing concentrations of compound 3 for 72 hours at 37° C. At the end of the 72 hours period, cells were treated with the MTT reagent (Sigma-Aldrich, M O) and the antiproliferative effect of compound 3 was measured as previously described (Zhou Y, Achanta G, Pelicano H, Gandhi V, Plunkett W, and Huang P (2002). Molecular Pharmacology 61:222-229). The IC50 values correspond to a concentration of compound 3 that inhibits cell viability by 50%.
The antiproliferative effect of compound 3 was evaluated in two human colon carcinoma cell lines (HT29, HCT116), three malignant melanoma cell lines (A375SM, MEL624, and SK-MEL-2), one human non-small cell lung carcinoma cell line (H1299), one lymphoma cell line (Raji), one leukemia cell line (HL-60), and one malignant breast cancer cell line (MDA-MB231) using MTT assay. The data (MTT curves and IC50 tables) are shown in FIG. 1 and in the following Table 1.

The next assay deals with MDA-MB231. Description: MTT cell viability assay, MDA-MB231. It is filed as cell-based. The settings on record: Homo sapiens, MDA-MB-231, 72 hours, read-out: IC50 (nM), antiproliferative effect. On the procedure:
as §1, §2, §3

In the case of superstolide A, in the assay with HT-29 cell, the IC50 is 64 nM.
Turning to `CC(=O)N[C@H](C)[C@@H](O)[C@@H](C)[C@@H]1OC(=O)/C=C/C=C(C)\C=C\[C@]2(C)CCC=C[C@@H]2/C=C(C)/C=C/[C@H]1C` [Compound 3], the “activity in NCI-60 cell assay” value with NCI-60 cell assay was “active”. Moreover, the IC50 in the assay with Raji was found to be 76.7 nM; in the assay on HL60, 11.8 nM; in the assay on MEL624 it was 53.1 nM; in the assay on SK-MEL-2 it was 63.8 nM; in the assay on H1299, 56.8 nM; with HCT116, 52.7 nM. Also, the IC50 with A375SM was 36.5 nM; in the assay on HT29 (Homo sapiens, HT-29, HT29, 72 hours, MTT assay, read-out: IC50 (nM), antiproliferative effect), 7.54 nM; in assay [1], 10 to 70 nM; in the assay on MDA-MB231, 18 nM. For the same compound, the “potency in suppressing tumor cell proliferation relative to superstolide A” value in the assay with HT29 (HT-29 cell, versus parent natural product superstolide A) is on record as “about seven times more potent”.
